From patent publication US10953040B2, “Methods of treating bacterial infections with penam β-lactam antibiotics and branched poly(ethylenimine)” (priority 2015, dated 2021)
In brackets after ≈: the same amount, converted by molar mass. Several values for one entry are separate records, joined by “and”; a condition that tells them apart may be missing. Equal entries are not always repeated. Entries after “also recorded” stand apart in the source; their conditions may differ. Where two headings read alike, the source gives them in different places.

Key:
Type in all cases: cell-based
[1] = tested on: methicillin-resistant Staphylococcus aureus (MRSA) strain ATCC 700787; experiment: microbe, parasite or virus in culture; settings: for MIC / concentration inhibiting MRSA growth: FIG. 6-8; for MIC: Staphylococcus aureus; for synergy with BPEI / change of efficacy against MRSA on addition of BPEI: BPEI 2.65 μg/mL, FIG. 6-10
Protocol: (§1) A stock culture was diluted in tryptic soy broth (TSB) and delivered into pre-sterilized 96-well plates. Stock solutions of BPEI and antibiotics, prepared in DMSO, were added to each well of a 96-well plate (final DMSO concentration was 1%), followed by inoculation with MRSA in TSB. Optical density measurements were performed with a Tecan Infinite M200 plate reader and an initial OD600 value recorded. The plates were incubated for 20 h in a humidified incubator at 37° C. Plates were removed, orbitally shaken, and a final OD600 value recorded. […] to obtain the change in OD600 (recorded in the figures as ΔOD600). Antimicrobial activity was determined by the change in optical density. Duplicate measurements were performed and the average reported.
(§2) Using the average ΔOD600 values, separate MIC values for BPEI and ampicillin were determined by the lowest concentration of each that inhibited growth.

[2] = tested on: methicillin-resistant Staphylococcus aureus (MRSA) strain ATCC 700787; experiment: MRSA checkerboard growth inhibition assay with FIC; settings: for MIC: Staphylococcus aureus; for interaction with BPEI by FIC values (synergy / additive): OD600<0.05 = growth inhibition; for OD600 of growth media: 20 hours
Description: The fractional inhibitory concentration (FIC) as used herein is a measure of the interaction of two agents, such as an antibiotic and a BPEI compound, used together, and is an indicator of synergy. FIC uses a value of the MIC of each of the independent agents, e.g., MICA and MICB for agents A and B, for a particular bacterium as the basis, then takes the concentration of each component in a mixture where an MIC(A in B) is observed. For example, for a two component system of agents A and B, MIC(A in B) is the concentration of A in the compound mixture and MIC(B in A) is the concentration of B in the compound mixture. The FIC is defined as follows: FICA=(MIC(A in B)/MICA) Eqn. 1 FICB=(MIC(B in A)/MICB) Eqn. 2 FICA+B=FICA+FICB Eqn. 3
Synergism (i.e., the two compounds together provide a synergistic effect) is defined herein as occurring when FICA+B≤0.5. The mixture is defined as having an additive effect when […]. When, FICA+B>4 the mixture is considered to have an antagonistic interaction. An example of how FIC is used to determine synergism is shown in U.S. Pat. No. 8,338,476, the entirety of which is incorporated herein by reference in its entirety.
as §1, §2

[3] = tested on: Escherichia coli ATCC 11775; experiment: E. coli growth inhibition assay (ΔOD600 after 20 h)
Protocol: (§3) The bacteria used in this work were obtained from the American Type Culture Collection (methicillin-resistant Staphylococcus aureus (MRSA) strain ATCC 700787, Staphylococcus aureus ATCC 25923, Escherichia coli ATCC 11775, Bacillus subtilis (Ehrenberg) Cohn ATCC 23059). Chemicals from Sigma-Aldrich (e.g., DMSO, ampicillin, methicillin, vancomycin, chloramphenicol, and novobiocin) were used as purchased.
as §1

[4] = tested on: Staphylococcus aureus ATCC 25923; experiment: non-resistant S. aureus growth inhibition assay (ΔOD600 after 20 h); settings: ATCC25923, ampicillin by itself, FIG. 14
Protocol: as §3, §1

[5] = with BPEI 2.65 μg/mL (2.7 μg/mL)
[6] = without BPEI, checkerboard FIG. 18-21, read-out: MIC

How did the “MIC / concentration inhibiting MRSA growth” value ([1]; antibiotic without BPEI) turn out when `CC1(C)S[C@@H]2[C@H](NC(=O)[C@H](N)c3ccc(O)cc3)C(=O)N2[C@H]1C(=O)O` [amoxicillin] was run?
The value was 58 µg/mL (≈ 159 µM).

What about the “MIC / concentration inhibiting MRSA growth” value [1, 5] of the same molecule?
The value was 30 µg/mL and 29 µg/mL.

And the MIC [2, 6]?
The MIC was over 32 µg/mL.

What about the “interaction with BPEI by FIC values (synergy / additive)” value (“interaction … (synergy / additive)” below) ([2]; checkerboard FIG. 18-21) of the same molecule?
Its value is “synergistic activity”.

How did the MIC ([3]; ATCC11775, ampicillin alone, FIG. 12) turn out when `CC1(C)S[C@@H]2[C@H](NC(=O)[C@H](N)c3ccccc3)C(=O)N2[C@H]1C(=O)O` [ampicillin] was run?
Its MIC is 3.7 µg/mL (≈ 10.6 µM).

What about the MIC ([3]; ATCC11775, with BPEI 2.65 μg/mL, FIG. 12, read-out: MIC for ampicillin) of the same molecule?
The MIC was 3.7 µg/mL (≈ 10.6 µM).

And the MIC ([1]; read-out: MIC for ampicillin, with BPEI 2.7 μg/mL, FIG. 2)?
The MIC was 12 to 25 µg/mL (≈ 34.3 to 71.5 µM).

What about the MIC ([1]; read-out: MIC for ampicillin, with BPEI 26 μg/mL, FIG. 5) of the same molecule?
Its MIC is about 1.2 µg/mL (≈ 3.43 µM).

And the MIC ([1]; read-out: MIC for ampicillin, without BPEI, FIG. 2)?
Its MIC is over 50 µg/mL.

And the MIC ([1]; read-out: MIC for ampicillin, without BPEI, FIG. 3 (second data set))?
Its MIC is 50 µg/mL (≈ 143 µM).

And the MIC ([2]; with BPEI 8 μg/mL, Table 1, read-out: ampicillin MIC)?
The MIC was 8 µg/mL.

And the MIC ([2]; with low-Mw BPEI 16 μg/mL, Table 1, read-out: ampicillin MIC)?
Its MIC is 1 µg/mL.

And the MIC ([2]; without BPEI, Table 1, read-out: ampicillin MIC)?
Its MIC is 32 µg/mL.

What about the MIC [2, 6] of the same molecule?
Its MIC is over 32 µg/mL.

And the “OD600 of growth media” value ([2]; ampicillin 0.125 + BPEI 0 μg/mL)?
Its value is 0.4361.

What about the “OD600 of growth media” value ([2]; ampicillin 0.250 + BPEI 0 μg/mL) of the same molecule?
Its value is 0.4282.

And the “OD600 of growth media” value ([2]; ampicillin 0.500 + BPEI 0 μg/mL)?
Its value is 0.4342.

What about the “OD600 of growth media” value ([2]; ampicillin 1 + BPEI 0 μg/mL) of the same molecule?
The value was 0.4289.

What about the “OD600 of growth media” value ([2]; ampicillin 2 + BPEI 0 μg/mL) of the same molecule?
The value was 0.4294.

And the “OD600 of growth media” value ([2]; ampicillin 4 + BPEI 0 μg/mL)?
The value was 0.4375.

What about the “OD600 of growth media” value ([2]; ampicillin 8 + BPEI 0 μg/mL) of the same molecule?
The value was 0.4344.

What about the “OD600 of growth media” value ([2]; ampicillin 16 + BPEI 0 μg/mL) of the same molecule?
The value was 0.3287.

What about the “OD600 of growth media” value ([2]; ampicillin 32 + BPEI 0 μg/mL) of the same molecule?
Its value is 0.0003.

What about the “OD600 of growth media” value ([2]; ampicillin 64 + BPEI 0 μg/mL) of the same molecule?
The value was 0.0014.

And the “interaction … (synergy / additive)” value ([2]; checkerboard FIG. 18-21)?
The value was “synergistic activity; also recorded: Synergy”.

And the “factor by which the ampicillin MIC is lowered” value ([2]; with low-Mw BPEI 16 μg/mL)?
The value was 32 ×.

And the MIC [4]?
The MIC was about 0.05 µg/mL (≈ 0.143 µM).

Which “synergy with BPEI / change of efficacy against MRSA on addition of BPEI” value (shortened to “synergy with BPEI / change of efficacy”) [1] does the source give for `O=C(N[C@H](CO)[C@H](O)c1ccc([N+](=O)[O-])cc1)C(Cl)Cl` [chloramphenicol] here?
Its value is “large synergy; also recorded: dramatic synergistic effect”.

And the “MIC / concentration inhibiting MRSA growth” value ([1]; antibiotic without BPEI)?
Its value is 50 µg/mL (≈ 155 µM).

And the “decrease in the MIC” value ([1]; on addition of 2.7 μg/mL BPEI, FIG. 8)?
Its value is 10 fold.

What about the “MIC / concentration inhibiting MRSA growth” value [1, 5] of the same molecule?
The value was 5 µg/mL (≈ 15.5 µM).

How did the “MIC / concentration inhibiting MRSA growth” value ([1]; antibiotic without BPEI) turn out when `COc1cccc(OC)c1C(=O)N[C@@H]1C(=O)N2[C@@H]1SC(C)(C)[C@@H]2C(=O)O` [methicillin] was run?
The value was over 60 µg/mL.

And the “MIC / concentration inhibiting MRSA growth” value [1, 5]?
The value was 30 µg/mL (≈ 78.9 µM).

And the MIC [2, 6]?
Its MIC is over 32 µg/mL.

What about the “interaction … (synergy / additive)” value ([2]; checkerboard FIG. 18-21) of the same molecule?
The value was “Synergy occurred”.

How did the “synergy with BPEI / change of efficacy” value [1] turn out when `CO[C@@H]1[C@@H](OC(N)=O)[C@@H](O)[C@H](Oc2ccc3c(O)c(NC(=O)c4ccc(O)c(CC=C(C)C)c4)c(=O)oc3c2C)OC1(C)C` [novobiocin] was run?
Its value is “did not show any synergy; also recorded: not substantially altered”.

`CN[C@H](CC(C)C)C(=O)N[C@H]1C(=O)N[C@@H](CC(N)=O)C(=O)N[C@H]2C(=O)N[C@H]3C(=O)N[C@H](C(=O)N[C@H](C(=O)O)c4cc(O)cc(O)c4-c4cc3ccc4O)[C@H](O)c3ccc(c(Cl)c3)Oc3cc2cc(c3O[C@@H]2O[C@H](CO)[C@@H](O)[C@H](O)[C@H]2O[C@H]2C[C@](C)(N)[C@H](O)[C@H](C)O2)Oc2ccc(cc2Cl)[C@H]1O` [vancomycin] was tested. Which “synergy with BPEI / change of efficacy” value [1] did it give?
The value was “did not show any synergy; also recorded: does not change”.

And the MIC [2]?
The MIC was 4 µg/mL.

What about the “interaction … (synergy / additive)” value ([2]; checkerboard FIG. 18-21) of the same molecule?
The value was “additive”.
